The subject of the test is Glomerella lagenarium (Colletotrichum lagenarium). Put plainly: Fungicidal activity against Glomerella lagenarium (Colletotrichum lagenarium) liquid culture / cucumber / preventative (anthracnose). The test is classed as cell-based. The conditions noted are these: Colletotrichum orbiculare; 20 ppm in the applied formulation; liquid culture (PDB), growth inhibition measured photometrically after 3 to 4 days; compared to untreated control; read-out: disease control. Here is the method:
Mycelia fragments or conidia suspensions of a fungus prepared either freshly from liquid cultures of the fungus or from cryogenic storage, are directly mixed into nutrient broth. DMSO solutions of the test compound (max. 10 mg/ml) are diluted with 0.025% Tween20 by a factor of 50 and 10 μl of this solution is pipetted into a microtiter plate (96-well format). The nutrient broth containing the fungal spores/mycelia fragments is then added to give an end concentration of the tested compound. The test plates are incubated in the dark at 24° C. and 96% relative humidity. The inhibition of fungal growth is determined photometrically after 2 to 7 days, depending on the pathosystem, and percent antifungal activity relative to the untreated check is calculated.
Fungicidal activity against Glomerella lagenarium (Colletotrichum lagenarium) liquid culture/cucumber/Preventative (Anthracnose)
Conidia of the fungus from cryogenic storage are directly mixed into nutrient broth (PDB—potato dextrose broth). After placing a (DMSO) solution of test compound into a microtiter plate (96-well format), the nutrient broth containing the fungal spores is added.
The following compounds at 20 ppm in the applied formulation give at least 80% disease control in this test when compared to untreated control under the same conditions, which show extensive disease development.

The results in this text go back to patent US11180462B2, “Microbiocidal oxadiazole derivatives” (SYNGENTA PARTICIPATIONS AG, priority 2015, dated 2021).

On to `CC1(C)CC1C(=O)N(Cc1ccc(-c2noc(C(F)(F)F)n2)cc1)CC1CC1` (stereo not drawn) [Compound 1.231, N-(cyclopropylmethyl)-2,2-dimethyl-N-[[4-[5-(trifluoromethyl)-1,2,4-oxadiazol-3-yl]phenyl]methyl]-cyclopropane-carboxamide], for which the inhibition of growth at 20 ppm is at least 80%.

For `CON(C(=O)C1CC1C)C(C)c1ccc(-c2noc(C(F)(F)F)n2)cc1` (stereo not drawn) [Compound 1.265, N-methoxy-2-methyl-N-[1-[4-[5-(trifluoromethyl)-1,2,4-oxadiazol-3-yl]phenyl]ethyl]-cyclopropane-carboxamide], the inhibition of growth at 20 ppm is at least 80%.

`CCC(C)N(Cc1ccc(-c2noc(C(F)(F)F)n2)cc1)C(=O)C1CC1C` (stereo not drawn) [Compound 1.385, 2-methyl-N-sec-butyl-N-[[4-[5-(trifluoromethyl)-1,2,4-oxadiazol-3-yl]phenyl]methyl]-cyclopropane-carboxamide]: the inhibition of growth at 20 ppm was at least 80%.

As to `CCCON(Cc1ccc(-c2noc(C(F)(F)F)n2)cc1)C(=O)CC(C)C` [Compound 1.294, 3-methyl-N-propoxy-N-[[4-[5-(trifluoromethyl)-1,2,4-oxadiazol-3-yl]phenyl]methyl]-butanamide], the inhibition of growth at 20 ppm was at least 80%.

As for `CON(C(=O)C1(F)CC1)C(C)c1ccc(-c2noc(C(F)(F)F)n2)cc1` (stereo not drawn) [Compound 1.271, 1-fluoro-N-methoxy-N-[1-[4-[5-(trifluoromethyl)-1,2,4-oxadiazol-3-yl]phenyl]ethyl]-cyclopropane-carboxamide], the inhibition of growth at 20 ppm was at least 80%.

On to `O=C(c1cccc(C(F)(F)F)c1)N(Cc1ccc(-c2noc(C(F)(F)F)n2)cc1)C1CC1` [Compound 1.88, N-cyclopropyl-3-(trifluoromethyl)-N-[[4-[5-(trifluoromethyl)-1,2,4-oxadiazol-3-yl]phenyl]methyl]-benzamide], for which the inhibition of growth at 20 ppm was at least 80%.

As to `N#CCC(=O)N(Cc1ccc(-c2noc(C(F)(F)F)n2)cc1)Cc1ccco1` [Compound 1.470, 2-cyano-N-(2-furylmethyl)-N-[[4-[5-(trifluoromethyl)-1,2,4-oxadiazol-3-yl]phenyl]methyl]-acetamide], the inhibition of growth at 20 ppm is at least 80%.

In the case of `CCCCCOC(=O)N(Cc1ccc(-c2noc(C(F)(F)F)n2)cc1)OC` [Compound 2.9, pentyl N-methoxy-N-[[4-[5-(trifluoromethyl)-1,2,4-oxadiazol-3-yl]phenyl]methyl]-carbamate], the inhibition of growth at 20 ppm is at least 80%.

On to `CC(C)C(=O)N(Cc1ccc(-c2noc(C(F)(F)F)n2)cc1)OCC=C(Cl)Cl` [Compound 1.539, N-(3,3-dichloroallyloxy)-2-methyl-N-[[4-[5-(trifluoromethyl)-1,2,4-oxadiazol-3-yl]phenyl]methyl]-propanamide], for which the inhibition of growth at 20 ppm is at least 80%.

Turning to `CON(Cc1ccc(-c2noc(C(F)(F)F)n2)cc1)C(=O)OC(Cl)C(C)C` (stereo not drawn) [Compound 2.19, (1-chloro-2-methyl-propyl) N-methoxy-N-[[4-[5-(trifluoromethyl)-1,2,4-oxadiazol-3-yl]phenyl]methyl]-carbamate], the inhibition of growth at 20 ppm is at least 80%.

In the case of `O=C(C1CC1(F)F)N(Cc1ccc(-c2noc(C(F)(F)F)n2)cc1)OCC=C(Cl)Cl` (stereo not drawn) [Compound 1.540, N-(3,3-dichloroallyloxy)-2,2-difluoro-N-[[4-[5-(trifluoromethyl)-1,2,4-oxadiazol-3-yl]phenyl]methyl]-cyclopropane-carboxamide], the inhibition of growth at 20 ppm is at least 80%.

On to `O=C(CCC(F)(F)F)N(Cc1ccc(-c2noc(C(F)(F)F)n2)cc1)CC1CC1` [Compound 1.213, N-(cyclopropylmethyl)-4,4,4-trifluoro-N-[[4-[5-(trifluoromethyl)-1,2,4-oxadiazol-3-yl]phenyl]methyl]-butanamide], for which the inhibition of growth at 20 ppm is at least 80%.

As to `CON(C(=O)C=CC(C)=O)C(C)c1ccc(-c2noc(C(F)(F)F)n2)cc1` (stereo not drawn) [Compound 1.272, N-methoxy-4-oxo-N-[1-[4-[5-(trifluoromethyl)-1,2,4-oxadiazol-3-yl]phenyl]ethyl]pent-2-enamide], the inhibition of growth at 20 ppm is at least 80%.

Take `O=C(CC1CC1(F)F)N(Cc1ccc(-c2noc(C(F)(F)F)n2)cc1)CC1CC1` (stereo not drawn) [Compound 1.240, N-(cyclopropylmethyl)-2-(2,2-difluorocyclopropyl)-N-[[4-[5-(trifluoromethyl)-1,2,4-oxadiazol-3-yl]phenyl]methyl]-acetamide]: the inhibition of growth at 20 ppm was at least 80%.

`CCCCC(=O)N(Cc1ccc(-c2noc(C(F)(F)F)n2)cc1)OCCC` [Compound 1.322, N-propoxy-N-[[4-[5-(trifluoromethyl)-1,2,4-oxadiazol-3-yl]phenyl]methyl]-pentanamide]: the inhibition of growth at 20 ppm is at least 80%.

`CCCON(Cc1ccc(-c2noc(C(F)(F)F)n2)cc1)C(=O)CCOC` [Compound 1.293, 3-methoxy-N-propoxy-N-[[4-[5-(trifluoromethyl)-1,2,4-oxadiazol-3-yl]phenyl]methyl]-propanamide]: the inhibition of growth at 20 ppm was at least 80%.

As to `CON(C(=O)CC(C)C)C(C)c1ccc(-c2noc(C(F)(F)F)n2)cc1` (stereo not drawn) [Compound 1.261, N-methoxy-3-methyl-N-[1-[4-[5-(trifluoromethyl)-1,2,4-oxadiazol-3-yl]phenyl]ethyl]-butanamide], the inhibition of growth at 20 ppm is at least 80%.

On to `CC(C)(C)CC(=O)N(Cc1ccc(-c2noc(C(F)(F)F)n2)cc1)C1CC1` [Compound 1.116, N-cyclopropy 1-3,3-dimethyl-N-[[4-[5-(trifluoromethyl)-1,2,4-oxadiazol-3-yl]phenyl]methyl]-butanamide], for which the inhibition of growth at 20 ppm is at least 80%.

For `CCCON(Cc1ccc(-c2noc(C(F)(F)F)n2)cc1)C(=O)C=CC(C)=O` [Compound 1.310, 4-oxo-N-propoxy-N-[[4-[5-(trifluoromethyl)-1,2,4-oxadiazol-3-yl]phenyl]methyl]-pent-2-enamide], the inhibition of growth at 20 ppm was at least 80%.

`CCC(C)N(Cc1ccc(-c2noc(C(F)(F)F)n2)cc1)C(=O)C=CC(F)(F)F` (stereo not drawn) [Compound 1.382, 4,4,4-trifluoro-N-sec-butyl-N-[[4-[5-(trifluoromethyl)-1,2,4-oxadiazol-3-yl]phenyl]methyl]but-2-enamide]: the inhibition of growth at 20 ppm is at least 80%.

Turning to `CCCCON(Cc1ccc(-c2noc(C(F)(F)F)n2)cc1)C(=O)CC1CC1` [Compound 1.650, N-butoxy-2-cydopropyl-N-[[4-[5-(trifluoromethyl)-1,2,4-oxadiazol-3-yl]phenyl]methyl]-acetamide], the inhibition of growth at 20 ppm is at least 80%.

`CON(C(=O)CC1CC1)C(C)c1ccc(-c2noc(C(F)(F)F)n2)cc1` (stereo not drawn) [Compound 1.256, 2-cyclopropyl-N-methoxy-N-[1-[4-[5-(trifluoromethyl)-1,2,4-oxadiazol-3-yl]phenyl]ethyl]-acetamide]: the inhibition of growth at 20 ppm is at least 80%.

Turning to `CCCON(Cc1ccc(-c2noc(C(F)(F)F)n2)cc1)C(=O)C1(F)CC1` [Compound 1.307, 1-fluoro-N-propoxy-N-[[4-[5-(trifluoromethyl)-1,2,4-oxadiazol-3-yl]phenyl]methyl]-cyclopropane-carboxamide], the inhibition of growth at 20 ppm was at least 80%.

For `CON(C(=O)C1CCC1)C(C)c1ccc(-c2noc(C(F)(F)F)n2)cc1` (stereo not drawn) [Compound 1.262, N-methoxy-N-[1-[4-[5-(trifluoromethyl)-1,2,4-oxadiazol-3-yl]pheny1]ethyl]-cyclobutane-carboxamide], the inhibition of growth at 20 ppm is at least 80%.
